From ChEMBL document CHEMBL1201862, “PubChem BioAssay data set” (2004)
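All cell lines were grown in 96-well plates and treated with compound for 48 hours. GI50 = concentration required for 50% inhibition of growth.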 Activity calls are given as the source filed them. Rule as the data show it: active = GI50 up to about 1.1 µM and inactive = higher.

How the values were obtained:
Assay in all cases: NCI-60 cell line screen, 48 h
COLO 205 = tested on: COLO 205
CCRF-CEM = tested on: CCRF-CEM
KM12 = tested on: KM12
K562 = tested on: K562
A498 = tested on: A498
UO-31 = tested on: UO-31
TK-10 = tested on: TK-10
SW-620 = tested on: SW-620
SK-MEL-28 = tested on: SK-MEL-28
EKVX = tested on: EKVX
CAKI-1 = tested on: CAKI-1
A549 = tested on: A549
Hs-578T = tested on: Hs-578T
T47D = tested on: T47D
SNB-19 = tested on: SNB-19
NCI-H226 = tested on: NCI-H226
Malme-3M = tested on: Malme-3M
SN12C = tested on: SN12C
SF-539 = tested on: SF-539
HOP-62 = tested on: HOP-62
NCI-H522 = tested on: NCI-H522
SK-MEL-5 = tested on: SK-MEL-5
M14 = tested on: M14
HOP-92 = tested on: HOP-92
HT-29 = tested on: HT-29
U-251 = tested on: U-251
IGROV-1 = tested on: IGROV-1
OVCAR-3 = tested on: OVCAR-3
BT-549 = tested on: BT-549
NCI/ADR-RES = tested on: NCI/ADR-RES
SK-MEL-2 = tested on: SK-MEL-2
OVCAR-8 = tested on: OVCAR-8
UACC-62 = tested on: UACC-62
786-0 = tested on: 786-0
UACC-257 = tested on: UACC-257
HL-60 = tested on: HL-60
LOX IMVI = tested on: LOX IMVI
SF-295 = tested on: SF-295
HCT-116 = tested on: HCT-116
SF-268 = tested on: SF-268
DU-145 = tested on: DU-145
OVCAR-5 = tested on: OVCAR-5
ACHN = tested on: ACHN
MDA-N = tested on: MDA-N
SK-OV-3 = tested on: SK-OV-3
MDA-MB-435 = tested on: MDA-MB-435
NCI-H23 = tested on: NCI-H23
HCT-15 = tested on: HCT-15
MDA-MB-231 = tested on: MDA-MB-231
SR = tested on: SR
SNB-75 = tested on: SNB-75
NCI-H460 = tested on: NCI-H460
RPMI-8226 = tested on: RPMI-8226
PC-3 = tested on: PC-3
RXF 393 = tested on: RXF 393
OVCAR-4 = tested on: OVCAR-4
HCC 2998 = tested on: HCC 2998
MCF7 = tested on: MCF7
MOLT-4 = tested on: MOLT-4

## Cc1ccc2occ/c(=N\Nc3ccccc3)c2c1
COLO 205
  GI50: 41.1 µM (inactive)
CCRF-CEM
  GI50: > 100 µM (inactive)
KM12
  GI50: 12.7 µM (inactive)
K562
  GI50: 25.2 µM (inactive)
A498
  GI50: 76.6 µM (inactive)
UO-31
  GI50: 70.8 µM (inactive)
TK-10
  GI50: > 100 µM (inactive)
SW-620
  GI50: > 100 µM (inactive)
SK-MEL-28
  GI50: 62.2 µM (inactive)
EKVX
  GI50: 18.6 µM (inactive)
CAKI-1
  GI50: 54 µM (inactive)
A549
  GI50: 57 µM (inactive)
Hs-578T
  GI50: 65.3 µM (inactive)
T47D
  GI50: 1.33 µM (inactive)
SNB-19
  GI50: > 100 µM (inactive)
NCI-H226
  GI50: 29.9 µM (inactive)
Malme-3M
  GI50: 29.5 µM (inactive)
SN12C
  GI50: > 100 µM (inactive)
SF-539
  GI50: > 100 µM (inactive)
HOP-62
  GI50: 32.6 µM (inactive)
NCI-H522
  GI50: 84.7 µM (inactive)
SK-MEL-5
  GI50: 41.5 µM (inactive)
M14
  GI50: 43 µM (inactive)
HOP-92
  GI50: 19.5 µM (inactive)
HT-29
  GI50: 23.9 µM (inactive)
U-251
  GI50: 66.1 µM (inactive)
IGROV-1
  GI50: 7.83 µM (inactive)
OVCAR-3
  GI50: 60.1 µM (inactive)
BT-549
  GI50: > 100 µM (inactive)
NCI/ADR-RES
  GI50: 39 µM (inactive)
SK-MEL-2
  GI50: > 100 µM (inactive)
OVCAR-8
  GI50: 72.9 µM (inactive)
UACC-62
  GI50: > 100 µM (inactive)
786-0
  GI50: 21.2 µM (inactive)
UACC-257
  GI50: > 100 µM (inactive)
HL-60
  GI50: > 100 µM (inactive)
LOX IMVI
  GI50: 66.2 µM (inactive)
SF-295
  GI50: 32.2 µM (inactive)
HCT-116
  GI50: 47.2 µM (inactive)
SF-268
  GI50: > 100 µM (inactive)
DU-145
  GI50: 37.8 µM (inactive)
OVCAR-5
  GI50: 59.4 µM (inactive)
ACHN
  GI50: > 100 µM (inactive)
MDA-N
  GI50: 65.9 µM (inactive)
SK-OV-3
  GI50: 59.6 µM (inactive)
MDA-MB-435
  GI50: 17.9 µM (inactive)
NCI-H23
  GI50: 28.1 µM (inactive)
HCT-15
  GI50: 39.9 µM
MDA-MB-231
  GI50: 88.5 µM (inactive)
SR
  GI50: 37.8 µM (inactive)
SNB-75
  GI50: 24.3 µM (inactive)
NCI-H460
  GI50: 56.9 µM (inactive)
RPMI-8226
  GI50: 25.1 µM (inactive)
PC-3
  GI50: 63.1 µM (inactive)
RXF 393
  GI50: 21.8 µM (inactive)
OVCAR-4
  GI50: 13.2 µM (inactive)
HCC 2998
  GI50: > 100 µM (inactive)
MCF7
  GI50: 40.2 µM (inactive)

## NC(CO)C(=O)NCC(=O)O (configuration not stated)
COLO 205
  GI50: > 100 µM (inactive)
MOLT-4
  GI50: > 100 µM (inactive)
CCRF-CEM
  GI50: > 100 µM (inactive)
KM12
  GI50: > 100 µM (inactive)
K562
  GI50: > 100 µM (inactive)
A498
  GI50: > 100 µM (inactive)
UO-31
  GI50: > 100 µM (inactive)
TK-10
  GI50: > 100 µM (inactive)
SW-620
  GI50: > 100 µM (inactive)
SK-MEL-28
  GI50: > 100 µM (inactive)
EKVX
  GI50: > 100 µM (inactive)
CAKI-1
  GI50: > 100 µM (inactive)
A549
  GI50: > 100 µM (inactive)
Hs-578T
  GI50: > 100 µM (inactive)
T47D
  GI50: > 100 µM (inactive)
SNB-19
  GI50: > 100 µM (inactive)
NCI-H226
  GI50: > 100 µM (inactive)
Malme-3M
  GI50: > 100 µM (inactive)
SN12C
  GI50: > 100 µM (inactive)
SF-539
  GI50: > 100 µM (inactive)
HOP-62
  GI50: > 100 µM (inactive)
NCI-H522
  GI50: > 100 µM (inactive)
SK-MEL-5
  GI50: > 100 µM (inactive)
M14
  GI50: > 100 µM (inactive)
HOP-92
  GI50: > 100 µM (inactive)
HT-29
  GI50: > 100 µM (inactive)
U-251
  GI50: > 100 µM (inactive)
IGROV-1
  GI50: > 100 µM (inactive)
OVCAR-3
  GI50: > 100 µM (inactive)
BT-549
  GI50: > 100 µM (inactive)
NCI/ADR-RES
  GI50: > 100 µM (inactive)
SK-MEL-2
  GI50: > 100 µM (inactive)
OVCAR-8
  GI50: > 100 µM (inactive)
UACC-62
  GI50: > 100 µM (inactive)
786-0
  GI50: > 100 µM (inactive)
UACC-257
  GI50: > 100 µM (inactive)
HL-60
  GI50: > 100 µM (inactive)
LOX IMVI
  GI50: > 100 µM (inactive)
SF-295
  GI50: > 100 µM (inactive)
HCT-116
  GI50: > 100 µM (inactive)
SF-268
  GI50: > 100 µM (inactive)
DU-145
  GI50: > 100 µM (inactive)
OVCAR-5
  GI50: > 100 µM (inactive)
ACHN
  GI50: > 100 µM (inactive)
MDA-N
  GI50: > 100 µM (inactive)
SK-OV-3
  GI50: > 100 µM (inactive)
MDA-MB-435
  GI50: > 100 µM (inactive)
NCI-H23
  GI50: > 100 µM (inactive)
HCT-15
  GI50: > 100 µM
MDA-MB-231
  GI50: > 100 µM (inactive)
SR
  GI50: > 100 µM (inactive)
SNB-75
  GI50: > 100 µM (inactive)
NCI-H460
  GI50: > 100 µM (inactive)
RPMI-8226
  GI50: > 100 µM (inactive)
PC-3
  GI50: > 100 µM (inactive)
RXF 393
  GI50: > 100 µM (inactive)
OVCAR-4
  GI50: > 100 µM (inactive)
HCC 2998
  GI50: > 100 µM (inactive)
MCF7
  GI50: > 100 µM (inactive)
